The target of assay [1] is Mitogen-activated protein kinase 10 (Homo sapiens, UniProt P53779). Description: Selectivity interaction (KinomeScan (DiscoverX)) EUB0001049a MAPK10. The following applies: at 1 µM.
Assay [2] deals with Cyclin-dependent kinase 18 (Homo sapiens) (UniProt Q07002). Description: Selectivity interaction (KinomeScan (DiscoverX)) EUB0001049a CDK18. The following applies: at 1 µM.
In assay [3] the target is Death-associated protein kinase 2 (Homo sapiens) (UniProt Q9UIK4). In words: Selectivity interaction (KinomeScan (DiscoverX)) EUB0000655a DAPK2. The following applies: at 10 µM.
Death-associated protein kinase 2 (Homo sapiens), sequence (Q9UIK4 whole entry, looked up, canonical isoform): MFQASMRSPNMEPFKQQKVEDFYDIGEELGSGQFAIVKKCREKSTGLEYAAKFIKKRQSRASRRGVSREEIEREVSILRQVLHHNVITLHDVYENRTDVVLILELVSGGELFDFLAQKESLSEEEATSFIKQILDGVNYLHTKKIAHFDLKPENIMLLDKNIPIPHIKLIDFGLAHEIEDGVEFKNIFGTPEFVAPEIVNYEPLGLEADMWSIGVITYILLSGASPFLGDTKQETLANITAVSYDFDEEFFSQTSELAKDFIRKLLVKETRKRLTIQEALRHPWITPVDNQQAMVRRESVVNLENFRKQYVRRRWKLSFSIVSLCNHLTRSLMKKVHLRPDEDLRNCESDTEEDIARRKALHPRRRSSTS
The target of assay [4] is Casein kinase I isoform gamma-2 (Homo sapiens) (UniProt P78368). Description: Selectivity interaction (KinomeScan (DiscoverX)) EUB0000666a CSNK1G2. As to conditions: at 10 µM.
Casein kinase I isoform gamma-2 (Homo sapiens), sequence (P78368 whole entry, looked up, canonical isoform): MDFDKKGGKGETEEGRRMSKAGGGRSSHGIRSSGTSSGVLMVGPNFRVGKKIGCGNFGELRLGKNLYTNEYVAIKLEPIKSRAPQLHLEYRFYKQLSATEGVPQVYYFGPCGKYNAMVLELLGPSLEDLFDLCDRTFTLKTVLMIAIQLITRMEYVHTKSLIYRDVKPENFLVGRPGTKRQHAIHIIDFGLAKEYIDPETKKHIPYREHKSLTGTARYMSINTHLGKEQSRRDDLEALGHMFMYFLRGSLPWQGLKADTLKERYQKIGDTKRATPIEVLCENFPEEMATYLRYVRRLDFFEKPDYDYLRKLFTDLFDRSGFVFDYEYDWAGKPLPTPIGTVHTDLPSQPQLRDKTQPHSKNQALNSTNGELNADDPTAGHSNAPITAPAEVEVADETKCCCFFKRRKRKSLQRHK
The target in assay [5] is T1, NUAK family SNF1-like kinase 1 (Homo sapiens) (UniProt O60285).
T1 sequence (whole entry): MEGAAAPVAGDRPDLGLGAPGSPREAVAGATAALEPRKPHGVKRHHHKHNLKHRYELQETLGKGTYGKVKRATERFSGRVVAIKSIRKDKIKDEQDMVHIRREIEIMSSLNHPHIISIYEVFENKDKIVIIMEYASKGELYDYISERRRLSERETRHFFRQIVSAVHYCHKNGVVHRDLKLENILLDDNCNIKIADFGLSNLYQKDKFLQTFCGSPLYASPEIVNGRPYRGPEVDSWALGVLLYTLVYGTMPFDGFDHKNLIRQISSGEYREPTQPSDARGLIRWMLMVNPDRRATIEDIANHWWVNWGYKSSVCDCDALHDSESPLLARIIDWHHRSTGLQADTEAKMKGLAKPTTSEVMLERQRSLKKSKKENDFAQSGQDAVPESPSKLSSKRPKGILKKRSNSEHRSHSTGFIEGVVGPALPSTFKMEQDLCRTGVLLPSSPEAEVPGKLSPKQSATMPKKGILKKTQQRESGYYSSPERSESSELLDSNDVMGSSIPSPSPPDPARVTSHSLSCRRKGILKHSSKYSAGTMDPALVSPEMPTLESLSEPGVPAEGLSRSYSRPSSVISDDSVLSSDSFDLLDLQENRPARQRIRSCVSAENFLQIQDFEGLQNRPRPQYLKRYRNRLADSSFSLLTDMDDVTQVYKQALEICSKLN
Description: Selectivity interaction (Adapta Assay) EUB0001632a NUAK1. The following applies: at 10 µM.

The target in assay [6] is Dual specificity mitogen-activated protein kinase kinase 2 (Homo sapiens) (UniProt P36507). Description: Selectivity interaction (KinomeScan (DiscoverX)) EUB0000607a MAP2K2. As to conditions: at 10 µM.
Dual specificity mitogen-activated protein kinase kinase 2 (Homo sapiens), sequence (P36507 whole entry): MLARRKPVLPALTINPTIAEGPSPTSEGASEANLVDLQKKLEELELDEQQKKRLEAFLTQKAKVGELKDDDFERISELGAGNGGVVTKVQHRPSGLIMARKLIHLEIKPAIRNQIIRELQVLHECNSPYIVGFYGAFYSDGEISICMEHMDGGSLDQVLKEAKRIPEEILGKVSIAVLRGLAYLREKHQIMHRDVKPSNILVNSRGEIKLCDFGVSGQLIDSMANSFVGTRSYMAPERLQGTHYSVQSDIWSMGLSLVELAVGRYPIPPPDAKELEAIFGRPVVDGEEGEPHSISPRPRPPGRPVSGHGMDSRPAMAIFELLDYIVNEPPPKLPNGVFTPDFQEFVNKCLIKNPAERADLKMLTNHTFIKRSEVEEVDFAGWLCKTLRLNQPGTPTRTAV
Assay [7] addresses Tyrosine-protein kinase Fer (Homo sapiens) (UniProt P16591). Description: Selectivity interaction (KinomeScan (DiscoverX)) EUB0000607a FER. The following applies: at 10 µM.
The target of assay [8] is Interleukin-1 receptor-associated kinase 1 (Homo sapiens) (UniProt P51617). In words: Selectivity interaction (KinomeScan (DiscoverX)) EUB0001619a IRAK1. The following applies: at 1 µM.
Interleukin-1 receptor-associated kinase 1 (Homo sapiens), sequence (P51617 whole entry, looked up): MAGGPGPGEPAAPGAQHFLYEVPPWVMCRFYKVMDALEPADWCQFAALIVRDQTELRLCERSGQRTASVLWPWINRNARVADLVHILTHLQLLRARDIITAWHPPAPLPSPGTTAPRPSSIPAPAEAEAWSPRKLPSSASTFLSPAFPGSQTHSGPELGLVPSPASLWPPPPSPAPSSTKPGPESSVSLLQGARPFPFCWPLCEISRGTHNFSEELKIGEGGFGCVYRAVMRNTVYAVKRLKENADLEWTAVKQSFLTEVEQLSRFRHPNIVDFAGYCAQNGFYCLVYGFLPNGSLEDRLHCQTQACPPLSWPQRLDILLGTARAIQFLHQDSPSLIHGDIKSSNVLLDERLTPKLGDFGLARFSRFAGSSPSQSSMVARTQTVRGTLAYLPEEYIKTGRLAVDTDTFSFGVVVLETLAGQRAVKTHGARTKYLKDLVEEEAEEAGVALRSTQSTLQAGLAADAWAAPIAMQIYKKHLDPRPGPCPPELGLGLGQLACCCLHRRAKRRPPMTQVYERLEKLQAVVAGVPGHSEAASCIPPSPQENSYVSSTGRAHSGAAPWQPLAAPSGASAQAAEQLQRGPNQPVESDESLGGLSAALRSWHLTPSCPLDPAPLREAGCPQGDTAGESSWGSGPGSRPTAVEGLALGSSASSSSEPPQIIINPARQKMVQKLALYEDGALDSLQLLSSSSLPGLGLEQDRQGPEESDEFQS
In assay [9] the target is Cyclin-dependent kinase 18 (Homo sapiens) (UniProt Q07002). Description: Selectivity interaction (KinomeScan (DiscoverX)) EUB0000618a CDK18. The following applies: at 10 µM.
The target of assay [10] is T2, Serine/threonine-protein kinase Nek1 (Homo sapiens) (UniProt Q96PY6).
T2 sequence (whole entry): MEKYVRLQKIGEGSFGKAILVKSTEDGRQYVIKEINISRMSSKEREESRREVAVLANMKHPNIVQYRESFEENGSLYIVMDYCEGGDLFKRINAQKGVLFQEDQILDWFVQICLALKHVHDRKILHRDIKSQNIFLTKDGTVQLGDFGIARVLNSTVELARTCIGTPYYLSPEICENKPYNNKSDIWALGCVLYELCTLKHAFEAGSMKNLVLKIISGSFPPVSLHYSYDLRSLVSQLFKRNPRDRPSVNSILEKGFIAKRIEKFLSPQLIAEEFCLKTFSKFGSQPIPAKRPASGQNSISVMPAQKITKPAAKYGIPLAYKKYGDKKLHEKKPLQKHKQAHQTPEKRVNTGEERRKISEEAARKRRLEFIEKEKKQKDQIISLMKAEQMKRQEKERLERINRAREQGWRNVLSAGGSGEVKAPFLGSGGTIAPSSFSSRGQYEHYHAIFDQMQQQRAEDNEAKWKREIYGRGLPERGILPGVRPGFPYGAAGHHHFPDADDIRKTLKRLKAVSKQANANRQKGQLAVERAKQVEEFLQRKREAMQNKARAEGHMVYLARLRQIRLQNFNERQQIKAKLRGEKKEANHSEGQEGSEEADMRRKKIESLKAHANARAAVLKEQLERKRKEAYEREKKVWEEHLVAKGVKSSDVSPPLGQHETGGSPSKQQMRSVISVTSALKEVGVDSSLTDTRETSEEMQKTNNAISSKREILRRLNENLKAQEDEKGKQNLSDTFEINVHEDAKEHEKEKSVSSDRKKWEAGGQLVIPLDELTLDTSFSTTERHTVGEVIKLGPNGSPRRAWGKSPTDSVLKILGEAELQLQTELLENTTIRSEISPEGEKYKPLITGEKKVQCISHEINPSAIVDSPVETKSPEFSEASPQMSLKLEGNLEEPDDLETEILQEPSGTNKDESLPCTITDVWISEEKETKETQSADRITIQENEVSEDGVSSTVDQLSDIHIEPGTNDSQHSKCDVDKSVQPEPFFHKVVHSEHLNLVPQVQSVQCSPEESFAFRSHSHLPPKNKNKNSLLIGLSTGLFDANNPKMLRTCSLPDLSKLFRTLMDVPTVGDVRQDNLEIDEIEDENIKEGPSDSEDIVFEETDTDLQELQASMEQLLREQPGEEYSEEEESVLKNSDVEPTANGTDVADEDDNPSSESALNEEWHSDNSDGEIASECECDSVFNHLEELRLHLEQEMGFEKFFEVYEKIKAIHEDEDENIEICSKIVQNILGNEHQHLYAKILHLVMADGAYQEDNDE
Description: Selectivity interaction (KinomeScan (DiscoverX)) EUB0000618a NEK1. As to conditions: at 10 µM.

Cyclin-dependent kinase 18 (Homo sapiens), sequence (Q07002 whole entry): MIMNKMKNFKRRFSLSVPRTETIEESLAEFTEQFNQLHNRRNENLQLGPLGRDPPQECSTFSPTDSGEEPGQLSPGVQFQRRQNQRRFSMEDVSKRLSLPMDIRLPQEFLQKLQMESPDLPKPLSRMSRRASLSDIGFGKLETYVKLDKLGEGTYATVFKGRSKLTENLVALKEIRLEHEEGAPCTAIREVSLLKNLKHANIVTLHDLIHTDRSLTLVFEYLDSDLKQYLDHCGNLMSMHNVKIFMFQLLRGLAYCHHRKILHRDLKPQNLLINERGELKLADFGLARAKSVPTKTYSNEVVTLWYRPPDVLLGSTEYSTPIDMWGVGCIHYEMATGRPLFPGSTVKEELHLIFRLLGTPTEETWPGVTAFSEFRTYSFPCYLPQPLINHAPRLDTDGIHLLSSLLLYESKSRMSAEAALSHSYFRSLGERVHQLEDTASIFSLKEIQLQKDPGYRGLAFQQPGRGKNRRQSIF
Mitogen-activated protein kinase 10, sequence (P53779 whole entry): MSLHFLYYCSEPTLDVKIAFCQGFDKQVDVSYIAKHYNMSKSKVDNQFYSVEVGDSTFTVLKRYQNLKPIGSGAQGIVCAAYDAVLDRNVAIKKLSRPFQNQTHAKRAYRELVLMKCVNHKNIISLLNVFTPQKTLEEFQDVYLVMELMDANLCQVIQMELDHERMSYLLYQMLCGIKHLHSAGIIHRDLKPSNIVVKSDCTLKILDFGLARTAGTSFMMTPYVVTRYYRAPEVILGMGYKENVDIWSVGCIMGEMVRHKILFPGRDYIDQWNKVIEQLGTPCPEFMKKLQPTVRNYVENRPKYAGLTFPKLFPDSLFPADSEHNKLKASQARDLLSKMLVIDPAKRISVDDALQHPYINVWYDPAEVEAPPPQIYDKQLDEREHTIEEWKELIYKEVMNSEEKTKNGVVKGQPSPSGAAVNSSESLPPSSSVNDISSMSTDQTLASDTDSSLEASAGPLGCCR
Tyrosine-protein kinase Fer (Homo sapiens), sequence (P16591 whole entry, looked up): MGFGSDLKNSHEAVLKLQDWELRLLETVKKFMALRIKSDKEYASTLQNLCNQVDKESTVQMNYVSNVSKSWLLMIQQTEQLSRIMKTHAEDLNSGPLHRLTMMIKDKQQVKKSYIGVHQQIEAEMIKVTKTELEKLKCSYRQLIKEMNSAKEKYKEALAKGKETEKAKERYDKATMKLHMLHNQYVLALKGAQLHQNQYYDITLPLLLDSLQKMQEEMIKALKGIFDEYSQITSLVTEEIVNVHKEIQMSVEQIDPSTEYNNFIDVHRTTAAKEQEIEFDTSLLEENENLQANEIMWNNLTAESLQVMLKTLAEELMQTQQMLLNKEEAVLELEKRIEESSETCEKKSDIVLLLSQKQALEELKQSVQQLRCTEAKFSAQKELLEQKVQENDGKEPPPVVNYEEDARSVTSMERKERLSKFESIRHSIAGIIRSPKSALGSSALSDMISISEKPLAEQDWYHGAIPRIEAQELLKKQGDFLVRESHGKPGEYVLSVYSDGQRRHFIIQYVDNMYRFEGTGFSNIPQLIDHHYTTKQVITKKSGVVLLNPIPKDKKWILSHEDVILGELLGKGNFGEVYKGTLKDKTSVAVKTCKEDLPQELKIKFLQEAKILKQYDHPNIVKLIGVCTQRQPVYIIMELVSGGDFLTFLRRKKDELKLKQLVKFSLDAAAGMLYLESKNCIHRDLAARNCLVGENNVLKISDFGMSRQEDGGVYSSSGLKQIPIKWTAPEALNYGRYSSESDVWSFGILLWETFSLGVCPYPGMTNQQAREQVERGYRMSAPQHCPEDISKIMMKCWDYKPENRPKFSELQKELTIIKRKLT

In the case of `COc1cc(Nc2nc(C)cc(-c3cnn4nc(OC)ccc34)n2)cc(C(F)(F)F)c1`, the figures for the % of control in [1] and in assay [2] were 77% and 87%, respectively.

In the case of `CN(C)CCOc1ccc(-c2nc(-c3ccncc3)c(-c3ccc4c(c3)CC/C4=N\O)[nH]2)cc1`, the % of control in assay [3] came to 100%.

In [4], `O=C(NOC[C@H](O)CO)c1ccc(F)c(F)c1Nc1ccc(I)cc1F` displayed a % of control of 95%.

With `Cn1cc(-n2cnc3c(NCc4nc5cc(Cl)c(Cl)cc5[nH]4)nc(N4CCOCC4)nc32)cn1`, the % of inhibition in assay [5] amounted to 15.2%.

As to `CNC(=O)Nc1ccc(-c2nc(N3CC4CCC(C3)O4)c3cnn(C4CCC5(CC4)OCCO5)c3n2)cc1`, the % of control in assay [6] and in assay [7] was 100% each time.

With `N#Cc1cccc(-c2c[nH]c3ncnc(N4CCOCC4)c23)c1`, the % of control in [8] amounted to 23%.

Consider `O[C@H]1CC[C@H](Nc2ncc3nc(Nc4c(F)cc(F)cc4F)n([C@H]4CCOC4)c3n2)CC1`, for which the figures for the % of control in assay [9] and in assay [10] were 100% and 97%, respectively.

The values are drawn from ChEMBL document CHEMBL5465560, “Selectivity Literature for EUbOPEN Chemogenomic Library” (2024).
